Series [1] concerns the target rhPSMA (Homo sapiens (Human), UniProt Q04609). The series is described as follows: Affinity assays using enzyme activity method (Test Example 2). It counts as biochemical. As for the experimental part: Buffer 1 (50 mM HEPES, 0.1 M NaCl, pH 7.5) was used to prepare a 0.4 μg/mL rhPSMA solution and a 40 μM solution of the substrate N-Acetyl-Asp-Glu. rhPSMA was mixed with the small molecules to be tested in a 96-well plate, with a constant rhPSMA content of 50 ng/well maintained. Meanwhile, the small molecules were step-wise diluted to final concentrations of 1 μM, 100 nM, 33.3 nM, 11.1 nM, 3.7 nM, 1.2 nM, 0.41 nM, 0.137 nM, 0.045 nM, and 0 nM. In addition, a positive control was set up using PSMA-617. The rhPSMA-small molecules were taken at 40 μL/well and well mixed with the 40 μM solution of the substrate N-Acetyl-Asp-Glu (40 μL/well). The mixtures were incubated at 37° C. in the dark for 1 h, were heated at 70° C. for 5 min to quench the reactions, and were cooled to room temperature. Buffer 2 (0.2 M NaOH, 0.1% beta-Mercaptoethanol) was used to prepare a 15 mM OPA solution. The OPA solution was added to the reaction systems at 80 μL/well and well mixed, and then the plate was incubated at room temperature for 10 min. The mixtures were taken at 100 μL/well and added to a 96-well Flat Black. With the excitation wavelength set to 330 nm and the emission wavelength to 465 nm, the intensity of signals was measured. IC50 values were obtained from dose-response curves.

Series [2] in a line: Pharmacokinetics in blood of normal mice after single tail-vein injection. Type of series: in vivo. The note with it: for Blood % ID/g: normal mice, individual animals 1-4. As for the experimental part: Through single tail-vein injections into mice, the pharmacokinetics of ^68Ga-v (Example 9) and PSMA-617 in blood was studied.
Each mouse was dosed at 50 μCi/100 μL, and blood samples were taken from the orbit 0.083, 0.25, 0.5, 1, 2, and 4 h post-dose (4 animals per time point). The blood samples were collected in pre-weighed sample tubes. The tubes were weighed and the weight of the blood samples was recorded. Then radioactivity counting was performed using a γ-counter. Meanwhile, a test sample was accurately diluted 100-fold, and 0.1 mL of the dilution was added to a counting tube and used as standard 1% ID (i.e., one percent of the injected dose). The radioactivity counts of the 1% ID standard and the biological samples were measured simultaneously on a γ-counter. The data on blood were expressed as the percentage of the radioactivity counts per gram of blood to the total injected dose (radioactivity counts) (% ID/g). Pharmacokinetic parameters were calculated from blood drug concentration data.

Series [3] relates to human organs. The series is described as follows: Absorbed doses of radiation, estimates for human organs (OLINDA software). How it is done: The AUC of drug metabolisms was calculated from the biodistribution (Bio-D) data and imported into the OLINDA software to generate doses of radiation absorbed by all the organs.

Several values for one entry are separate records, joined by “and”; a condition that tells them apart may be missing. Equal entries are not always repeated.

Chain of rhPSMA (Q04609 44-750): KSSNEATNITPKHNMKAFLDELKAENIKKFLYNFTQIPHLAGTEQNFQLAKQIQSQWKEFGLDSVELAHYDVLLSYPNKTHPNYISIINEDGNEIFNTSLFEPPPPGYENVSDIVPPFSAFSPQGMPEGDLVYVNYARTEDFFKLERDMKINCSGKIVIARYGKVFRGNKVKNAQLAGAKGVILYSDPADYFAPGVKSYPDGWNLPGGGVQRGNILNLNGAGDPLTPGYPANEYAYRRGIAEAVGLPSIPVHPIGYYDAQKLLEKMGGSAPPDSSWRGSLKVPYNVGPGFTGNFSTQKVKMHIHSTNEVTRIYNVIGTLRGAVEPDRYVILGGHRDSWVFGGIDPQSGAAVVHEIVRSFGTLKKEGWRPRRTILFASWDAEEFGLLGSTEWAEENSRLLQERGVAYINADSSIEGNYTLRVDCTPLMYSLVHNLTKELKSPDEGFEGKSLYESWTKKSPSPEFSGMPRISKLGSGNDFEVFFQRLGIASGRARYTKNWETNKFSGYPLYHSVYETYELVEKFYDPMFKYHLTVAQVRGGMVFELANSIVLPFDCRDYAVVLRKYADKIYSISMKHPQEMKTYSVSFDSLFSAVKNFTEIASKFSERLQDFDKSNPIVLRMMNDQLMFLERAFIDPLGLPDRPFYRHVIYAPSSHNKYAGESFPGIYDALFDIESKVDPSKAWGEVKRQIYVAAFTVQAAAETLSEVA

For the compound `O=C(O)CC[C@H](NC(=O)N[C@@H](CCCCNC(=O)[C@H](Cc1ccc2ccccc2c1)NC(=O)[C@H]1CC[C@]2(CC1)CN(C(=O)CN1CCN(CC(=O)O)CCN(CC(=O)O)CCN(CC(=O)O)CC1)CCO2)C(=O)O)C(=O)O` [Example 9, (((S)-1-carboxy-5-((S)-3-(2-naphthyl)-2-((6S,9r)-4-(2-(4,7,10-tris(carboxymethyl)-1,4,7,10-tetraazacyclododecanyl)acetyl)-1-oxa-4-azaspiro[5.5]undecane-9-carboxamido)propanamido)pentyl)carbamoyl)-L-glutamic acid], the “affinity, comparison in words” value in series [1] (enzyme activity experiment, FIG. 1) is “better affinity than compound x of Example 11”. Also, in series [1] (ratio of IC50 values), the “Ratio to PSMA-617” value was 0.74. For the same compound, in series [1] (rhPSMA 50 ng/well, substrate N-Acetyl-Asp-Glu, 37° C. 1 h), it took 1.23 nM to reach half-maximal inhibition (IC50).
In the case of `O=C([O-])CN1CCN(CC(=O)[O-])CCN(CC(=O)NCC2CCC(C(=O)N[C@@H](Cc3ccc4ccccc4c3)C(=O)NCCCC[C@H](NC(=O)N[C@@H](CCC(=O)O)C(=O)O)C(=O)O)CC2)CCN(CC(=O)[O-])CC1.[68Ga+3]` (some centres unmarked) [^68Ga-PSMA-617, reference compound], the “Blood % ID/g” value in series [2] (0.083 h post-dose) is 4.22 % ID/g (2×) and 4.29 % ID/g and 3.66 % ID/g. The “content of the radioactive substance in the blood” value in series [2] (0.25 h after the injections, mean of n=4) turned out to be 2.27±0.44 % ID/g. Besides, the “Blood % ID/g” value in series [2] (0.25 h post-dose) is 2.12 % ID/g and 2.53 % ID/g and 2.71 % ID/g and 1.73 % ID/g. For the same compound, the “Blood % ID/g” value in series [2] (0.5 h post-dose) is 0.55 % ID/g (2×) and 0.84 % ID/g and 0.86 % ID/g. Further, in series [2] (1 h post-dose), the “Blood % ID/g” value was 0.14 % ID/g and 0.16 % ID/g and 0.10 % ID/g and 0.13 % ID/g. Further, in series [2] (2 h post-dose), the “Blood % ID/g” value was 0.04 % ID/g and 0.07 % ID/g and 0.10 % ID/g and 0.13 % ID/g. Further, the “Blood % ID/g” value in series [2] (4 h post-dose) was 0.29 % ID/g and 0.10 % ID/g and 0.09 % ID/g. The “half-life in the blood” value in series [2] (blood of normal mice) stood at 13.2 min. For the same compound, in series [2] (blood of normal mice, 0-4 h), the AUCINF_obs is recorded as 1.65 ± 0.13 h* % ID/g, the AUClast is given as 1.66 ± 0.14 h* % ID/g, the Cl_obs came out at 12.10 ± 1.0 μCi/h* % ID/g and the Cmax stood at 4.10 ± 0.29 % ID/g. In series [2] (blood of normal mice, 0-4 h), the MRTlast worked out at 19.8 ± 3 min; the Vz_obs was 4.06 ± 1.39 μCi/% ID/g; the t1/2 was 13.2 min and 13.2 ± 1.2 min. Further, in series [3] (human organ: Adrenals), the “radiation dose estimate, Adrenals” value was 7.49E−02 mSv/MBq. Moreover, the “radiation dose estimate, Brain” value in series [3] (human organ: Brain) is 7.80E−02 mSv/MBq. For the same compound, the “radiation dose estimate, Esophagus” value in series [3] (human organ: Esophagus) is listed as 1.79E−02 mSv/MBq. The “radiation dose estimate, Eyes” value in series [3] (human organ: Eyes) is 1.25E−02 mSv/MBq. Also, the “radiation dose estimate, Gallbladder Wall” value in series [3] (human organ: Gallbladder Wall) is reported as 3.22E−02 mSv/MBq. In series [3] (human organ: Heart Wall), the “radiation dose estimate, Heart Wall” value was 3.93E−02 mSv/MBq. Also, in series [3] (human organ: Kidneys), the “radiation dose estimate, Kidneys” value is on record as 5.47E−01 mSv/MBq. Moreover, in series [3] (human organ: Left colon), the “radiation dose estimate, Left colon” value was 1.63E−02 mSv/MBq. Besides, the “radiation dose estimate, Liver” value in series [3] (human organ: Liver) is recorded as 1.75E−01 mSv/MBq. Besides, in series [3] (human organ: Lungs), the “radiation dose estimate, Lungs” value is reported as 1.21E−01 mSv/MBq. For the same compound, the “radiation dose estimate, Osteogenic Cells” value in series [3] (human organ: Osteogenic Cells) is listed as 3.14E−01 mSv/MBq. Moreover, the “radiation dose estimate, Pancreas” value in series [3] (human organ: Pancreas) is 1.86E−02 mSv/MBq. For the same compound, the “radiation dose estimate, Prostate” value in series [3] (human organ: Prostate) is on record as 7.73E−03 mSv/MBq. The “radiation dose estimate, Rectum” value in series [3] (human organ: Rectum) is 1.83E−01 mSv/MBq. Besides, in series [3] (human organ: Red Marrow), the “radiation dose estimate, Red Marrow” value is given as 2.11E−02 mSv/MBq. Moreover, the “radiation dose estimate, Right colon” value in series [3] (human organ: Right colon) is 1.34E−02 mSv/MBq. Moreover, the “radiation dose estimate, Salivary Glands” value in series [3] (human organ: Salivary Glands) was 9.39E−03 mSv/MBq. The “radiation dose estimate, Small Intestine” value in series [3] (human organ: Small Intestine) was 1.00E−01 mSv/MBq. In addition, the “radiation dose estimate, Spleen” value in series [3] (human organ: Spleen) is 1.79E−01 mSv/MBq. Besides, the “radiation dose estimate, Stomach Wall” value in series [3] (human organ: Stomach Wall) is given as 1.91E−02 mSv/MBq. In addition, in series [3] (human organ: Testes), the “radiation dose estimate, Testes” value was 3.69E−03 mSv/MBq. Besides, the “radiation dose estimate, Thymus” value in series [3] (human organ: Thymus) is 1.16E−02 mSv/MBq. Besides, the “radiation dose estimate, Thyroid” value in series [3] (human organ: Thyroid) was 1.08E−02 mSv/MBq. In addition, in series [3] (human organ: Urinary Bladder Wall), the “radiation dose estimate, Urinary Bladder Wall” value is reported as 5.54E−03 mSv/MBq. Further, the “radiation dose estimate, Effective Dose” value in series [3] (human: Effective Dose) is listed as 4.68E−02 mSv/MBq. The “radiation dose estimate, Total Body” value in series [3] (human: Total Body) is listed as 3.61E−02 mSv/MBq.

The record behind these values is US20240366809A1, “INHIBITOR OF PROSTATE SPECIFIC MEMBRANE ANTIGEN AND PHARMACEUTICAL USE THEREOF” (TIANJIN HENGRUI MEDICINE CO., LTD., priority 2021, published 2024).
